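Exposure lasted 48 hours, with cells grown in 96-well plates and compounds tested at five concentrations. Here, GI50 denotes the concentration required for 50% inhibition of growth.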 Active and inactive are the calls of the source. Cut-off read from the data, not from the text of the source: active = GI50 up to about 1.1 µM and inactive = higher.
Assays:
Test in all cases: inhibition of tumour cell growth, NCI panel, 48 h
SK-MEL-5 = system: SK-MEL-5
SK-OV-3 = system: SK-OV-3
786-0 = system: 786-0
OVCAR-4 = system: OVCAR-4
A498 = system: A498
SNB-75 = system: SNB-75
SW-620 = system: SW-620
U-251 = system: U-251
UACC-62 = system: UACC-62
LOX IMVI = system: LOX IMVI
SN12C = system: SN12C
DU-145 = system: DU-145
MDA-N = system: MDA-N
COLO 205 = system: COLO 205
SK-MEL-2 = system: SK-MEL-2
IGROV-1 = system: IGROV-1
SF-268 = system: SF-268
Malme-3M = system: Malme-3M
T47D = system: T47D
RXF 393 = system: RXF 393

Measured: GI50

C=CCC(NCc1ccccc1)[C@H](OCc1ccccc1)[C@@H]1COC(C)(C)O1 (stereo partly drawn)
inactive: SK-MEL-5 23 µM | SK-OV-3 79.3 µM | 786-0 30.4 µM | OVCAR-4 44.7 µM | A498 45.6 µM | SNB-75 49 µM | SW-620 41.9 µM | U-251 37.6 µM | UACC-62 40.6 µM | LOX IMVI 26 µM | SN12C 43.4 µM | DU-145 97.3 µM | MDA-N 31.8 µM | COLO 205 14.5 µM | SK-MEL-2 19.6 µM | IGROV-1 35.8 µM | SF-268 44.9 µM | Malme-3M 22.6 µM

COC(=O)C1=C(C)C(=O)[C@]23C(CCCC[C@H]12)C(=O)[C@H](C(=O)OC)C3C (stereo partly drawn)
inactive: T47D > 100 µM | SK-OV-3 > 100 µM | 786-0 > 100 µM | OVCAR-4 > 100 µM | SW-620 > 100 µM | U-251 > 100 µM | UACC-62 > 100 µM | LOX IMVI > 100 µM | SN12C > 100 µM | DU-145 > 100 µM | MDA-N > 100 µM | COLO 205 > 100 µM | IGROV-1 > 100 µM | SF-268 > 100 µM | Malme-3M > 100 µM

N#CC(C(=O)CCC(=O)C(C#N)c1ccccc1)c1ccccc1 (stereo not drawn)
inactive: SK-MEL-5 > 100 µM | SK-OV-3 > 100 µM | 786-0 > 100 µM | OVCAR-4 > 100 µM | A498 > 100 µM | SNB-75 > 100 µM | SW-620 > 100 µM | U-251 > 100 µM | UACC-62 > 100 µM | LOX IMVI > 100 µM | SN12C > 100 µM | COLO 205 > 100 µM | RXF 393 > 100 µM | SK-MEL-2 > 100 µM | IGROV-1 > 100 µM | SF-268 > 100 µM | Malme-3M > 100 µM

CN1C(=O)C(O)CC1c1cccc(F)c1 (stereo not drawn)
inactive: SK-MEL-5 > 100 µM | SK-OV-3 > 100 µM | 786-0 > 100 µM | OVCAR-4 > 100 µM | A498 > 100 µM | SNB-75 55.7 µM | SW-620 > 100 µM | U-251 > 100 µM | UACC-62 > 100 µM | LOX IMVI > 100 µM | SN12C > 100 µM | DU-145 > 100 µM | MDA-N > 100 µM | COLO 205 > 100 µM | RXF 393 > 100 µM | SK-MEL-2 > 100 µM | IGROV-1 > 100 µM | Malme-3M > 100 µM

N[C@@H](CCC(=O)NC(Cc1ccccc1)C(=O)NCP(=O)(O)O)C(=O)O (stereo partly drawn)
inactive: T47D > 100 µM | SK-MEL-5 > 100 µM | 786-0 > 100 µM | A498 > 100 µM | SW-620 > 100 µM | U-251 > 100 µM | UACC-62 > 100 µM | LOX IMVI > 100 µM | SN12C > 100 µM | MDA-N > 100 µM | COLO 205 > 100 µM | SK-MEL-2 > 100 µM | IGROV-1 > 100 µM | Malme-3M > 100 µM

CCOC(=O)CCC(NC(=O)c1ccc(/N=C/c2nc3cc(C(F)(F)F)ccc3nc2-c2ccccc2)cc1)C(=O)OCC (stereo not drawn)
inactive: SK-MEL-5 25.1 µM | SK-OV-3 8.77 µM | 786-0 7.38 µM | OVCAR-4 11.5 µM | A498 23.4 µM | SNB-75 5.04 µM | SW-620 > 50 µM | U-251 6.07 µM | UACC-62 12.2 µM | LOX IMVI 14.4 µM | SN12C > 50 µM | DU-145 34.1 µM | COLO 205 25.5 µM | RXF 393 7.14 µM | SK-MEL-2 11.3 µM | IGROV-1 15.3 µM | SF-268 8.34 µM | Malme-3M 6.4 µM

NC(=O)c1c2c(cc3c(=O)c4ccccc4[nH]c13)CCCC2
inactive: SK-MEL-5 > 100 µM | SK-OV-3 > 100 µM | 786-0 > 69.3 µM | OVCAR-4 > 100 µM | A498 > 100 µM | SNB-75 43.1 µM | SW-620 > 100 µM | U-251 > 100 µM | UACC-62 > 100 µM | LOX IMVI > 100 µM | SN12C > 100 µM | COLO 205 > 100 µM | RXF 393 > 100 µM | SK-MEL-2 > 65.9 µM | IGROV-1 > 100 µM | SF-268 > 100 µM | Malme-3M > 73.6 µM

CC1CC[C@]2(C(=O)O)CCC3(COC(=O)/C=C\c4ccc(O)cc4)C(=CCC4[C@@]5(C)CC[C@H](O)C(C)(C)C5CC[C@]43C)[C@@H]2[C@H]1C (stereo partly drawn)
inactive: SK-MEL-5 18.2 µM | SK-OV-3 3.5 µM | 786-0 21.3 µM | OVCAR-4 39.3 µM | A498 27 µM | SNB-75 27.7 µM | SW-620 27.9 µM | U-251 9.79 µM | UACC-62 17.2 µM | LOX IMVI 14.1 µM | SN12C 20.8 µM | COLO 205 23.3 µM | RXF 393 17.5 µM | SK-MEL-2 20.8 µM | IGROV-1 11.5 µM | SF-268 14.7 µM | Malme-3M 34.8 µM

O=S1(=O)c2ccccc2N2CCCc3cc(Cl)cc1c32
inactive: SK-MEL-5 > 100 µM | SK-OV-3 51.9 µM | 786-0 40.4 µM | OVCAR-4 46.2 µM | A498 > 100 µM | SNB-75 12.6 µM | SW-620 > 100 µM | UACC-62 60.1 µM | LOX IMVI > 100 µM | SN12C > 100 µM | DU-145 > 100 µM | MDA-N > 100 µM | COLO 205 > 100 µM | RXF 393 25.2 µM | SK-MEL-2 44.2 µM | IGROV-1 > 100 µM | SF-268 34.4 µM | Malme-3M 70.6 µM

CC1CCCC(CC(=O)O)(CC(=O)O)C1 (stereo not drawn)
inactive: SK-MEL-5 > 100 µM | 786-0 > 100 µM | OVCAR-4 > 100 µM | A498 > 100 µM | SW-620 > 100 µM | U-251 > 100 µM | UACC-62 > 100 µM | LOX IMVI > 100 µM | SN12C > 100 µM | MDA-N > 100 µM | COLO 205 > 100 µM | SK-MEL-2 > 100 µM | IGROV-1 > 100 µM | SF-268 > 100 µM | Malme-3M > 100 µM

O=C1C=C(NCCc2ccc(O)cc2)C(=O)C=C1NCCc1ccc(O)cc1
inactive: T47D > 100 µM | SK-MEL-5 > 100 µM | SK-OV-3 54.3 µM | 786-0 > 100 µM | OVCAR-4 > 100 µM | A498 > 100 µM | SNB-75 19.6 µM | SW-620 > 100 µM | U-251 32.2 µM | UACC-62 > 100 µM | LOX IMVI 35.1 µM | SN12C > 100 µM | DU-145 > 100 µM | COLO 205 > 100 µM | RXF 393 > 100 µM | SK-MEL-2 > 100 µM | IGROV-1 > 100 µM | SF-268 > 100 µM | Malme-3M > 100 µM

CN1CC[C@]2(c3cccc(O)c3)CC(=O)/C(=C/c3ccccc3)[C@@H]1C2.[O-][Cl+3]([O-])([O-])O
inactive: SK-MEL-5 3.12 µM | 786-0 2.44 µM | OVCAR-4 3.37 µM | A498 6.98 µM | SNB-75 2 µM | SW-620 2.23 µM | U-251 2.54 µM | LOX IMVI 1.94 µM | SN12C 2.99 µM | DU-145 5.52 µM | MDA-N 1.58 µM | COLO 205 6.97 µM | RXF 393 1.49 µM | SK-MEL-2 2.95 µM | IGROV-1 4.39 µM | SF-268 3.17 µM | Malme-3M 2.64 µM

Cc1cccc(C)c1NC(=O)CCC(=O)NNc1nnc(C)n1N
inactive: SK-MEL-5 > 100 µM | SK-OV-3 > 100 µM | 786-0 > 100 µM | OVCAR-4 > 100 µM | A498 53.3 µM | SNB-75 > 100 µM | SW-620 > 100 µM | U-251 > 100 µM | UACC-62 > 100 µM | LOX IMVI > 100 µM | SN12C > 100 µM | COLO 205 > 100 µM | RXF 393 > 100 µM | SK-MEL-2 > 100 µM | IGROV-1 > 100 µM | SF-268 > 100 µM | Malme-3M > 100 µM

C[N+]1=C(c2cccnc2/C=N/O)OCC1(C)C
inactive: SK-MEL-5 > 100 µM | SK-OV-3 > 100 µM | 786-0 > 100 µM | OVCAR-4 > 100 µM | A498 > 100 µM | SNB-75 > 100 µM | SW-620 > 100 µM | U-251 > 100 µM | UACC-62 > 100 µM | LOX IMVI > 100 µM | SN12C > 100 µM | COLO 205 > 100 µM | RXF 393 > 100 µM | SK-MEL-2 > 100 µM | IGROV-1 > 100 µM | SF-268 > 100 µM | Malme-3M > 100 µM

C[C@]12CCC(O)CC1=CC[C@@H]1[C@@H]2CC[C@]2(C)C(=O)[C@H](n3ccnc3)C[C@@H]12 (stereo partly drawn)
inactive: SK-MEL-5 16.2 µM | 786-0 > 100 µM | OVCAR-4 89.1 µM | A498 > 100 µM | SNB-75 > 100 µM | SW-620 > 100 µM | U-251 61.9 µM | UACC-62 47.5 µM | LOX IMVI 44.5 µM | SN12C > 100 µM | DU-145 > 100 µM | MDA-N 57.4 µM | COLO 205 28.7 µM | RXF 393 > 100 µM | SK-MEL-2 27 µM | IGROV-1 > 100 µM | SF-268 > 100 µM | Malme-3M > 100 µM

COC(=O)/C(=N\NC(N)=O)C(C(=O)C(=O)Nc1ccccc1OC)c1nc2ccc([N+](=O)[O-])cc2nc1O (stereo not drawn)
inactive: T47D > 100 µM | SK-MEL-5 > 100 µM | SK-OV-3 > 100 µM | 786-0 > 100 µM | OVCAR-4 53 µM | A498 > 100 µM | SNB-75 > 100 µM | SW-620 > 100 µM | U-251 > 100 µM | UACC-62 > 100 µM | LOX IMVI > 100 µM | SN12C > 100 µM | MDA-N 55.1 µM | RXF 393 > 100 µM | SK-MEL-2 > 100 µM | IGROV-1 53.1 µM | SF-268 > 100 µM | Malme-3M > 100 µM

Reference: ChEMBL document CHEMBL1201862, “PubChem BioAssay data set” (2004)
